Tests used:
[1] = tested on: type II collagen (COL2A1); test: Articular chondrocyte pellet, RT-PCR expression of type II collagen; details: for Relative expression of Type II collagen (%) (Mean ± SD): no treatment = 100, n=3, peptide as in Example 1 test (25 μM)
Experimental: (§1) In order to ensure that cellular properties of articular chondrocytes are maintained similarly to those of biological tissue, the cells were pelleted and cultured.
Cartilage tissue was prepared from hoof joints of less than 3-year old cows within one hour of being sacrificed at a regional slaughterhouse (located in Ojeong-dong, Daejeon, South Korea). For this purpose, a cartilage portion other than bone was cut using a surgical knife and collected to use. The cartilage tissue was sliced into a hexahedron of about 1 mm long at each side and placed in DMEM/F12 (Welgene) supplemented with Pronase (1 mg/ml, Roche), followed by reaction in a 5% CO2 incubator at 37° C. for 1.5 hours. The Pronase-treated tissue was washed twice with PBS(phosphate buffered saline) and then once with DMEM/F12. The washed cartilage tissue was placed in DMEM/F12 supplemented with 5% FBS (fetal bovine serum) (Invitrogen), Collagenase P (0.25 mg/ml, Roche) and DNase I (20 μg/ml, Sigma) and was allowed to react in a 5% CO2 incubator at 37° C. for 8 to 12 hours, such that the tissue was completely degraded. After the degradation was completed, the cells were collected by centrifugation at 500 xg for 15 minutes and washed twice with PBS. The cells were suspended at a cell density of 2×10^6 cells/ml in DMEM/F12 supplemented with 10% FBS and ascorbate (50 μg/ml, Sigma), and lml/tube of the cells were dispensed into 15 ml conical tubes. The cells were pelleted by centrifugation at 500 xg for 10 minutes and cultured in a 5% CO2 incubator at 37° C. for 2 days, thereby preparing a cell pellet which is solid. The pellet was transferred to a 24-well plate and cultured for 5 days. […] On Day 13, the cells were cultured in serum-free media for 24 hours.
RNA was isolated from the cultured pellet using TRIZOL (Invitrogen) and quantified by absorbance at 260 nm. cDNA was synthesized from 2.25 μg of RNA, using a random hexamer and 5× Reverse Transcriptase Master premix (Elpis Biotech, South Korea). Using 1 μl of synthesized cDNA, amplification was carried out by polymerase chain reaction (PCR) to investigate expression levels of genes. The genes to be investigated are as follows: a gene for chondrocyte-characteristic type II collagen (COL2A1) as a gene for confirming the regeneration of articular cartilage tissue; a gene for matrix metallopeptidase 13 (MMP13) which is over-expressed in damaged cartilage tissue and is involved in the degradation of the matrix, as a gene for confirming whether or not it is capable of preventing additional cartilage damage; and a gene for type X collagen (COL10A1) characteristic to hypertrophic chondrocytes involved in the ossification of articular tissue, as a gene for confirming whether or not it is over-activated and progressed to ossification.
Specifically, PCR was carried out under the following reaction conditions. The PCR reaction employed 1 μl of cDNA, 10 μl of 2× Taq polymerase master mix (Solgent), 0.5 μl of each primer set (10 pmole/μl), and 8 μl of distilled water. PCR amplification consisted of denaturation at 94° C. for 2 minutes, followed by reaction at 94° C. for 30 seconds, at 58° C. for 45 seconds and at 72° C. or 1 minute, with 32 cycles for Type II collagen, Type X collagen and MMP13, and 26 cycles for GAPDH, respectively.

[2] = tested on: damaged cartilage tissue explants (articular chondrocyte explants); test: Cartilage regeneration in damaged cartilage tissue explants; type: cell-based, cows; details: for changes in damaged region of explant (micrograph, FIG. 1): 25 μM peptide
Experimental: Using a syringe (21G) whose tip was truncated and ground, damaged regions were prepared by making vertical holes to the surface uniformly at the center of the explant.
The perforated tissue explants were divided into 4 groups including a control group. […] In addition, the 1-week-incubated tissue explant and the 6-week-incubated tissue explant were fixed, respectively, in a 3.7% formaldehyde/phosphate buffered saline(3.7% formaldehyde/PBS). Then, according to the experimental method of standard histochemistry, paraffin section slides were prepared, followed by hematoxylin & eosin (H&E) staining and microscopic examination of cell shape and distribution in terms of morphology. Collagen was subjected to Masson's trichrome staining, and the shape and distribution of cells in the tissue were examined under a microscope. For comparison, the control group was treated in the same manner as in the group treated with the peptide of Example 1, except that the peptide of Example 1 was not treated.

[3] = tested on: matrix metallopeptidase 13 (MMP13); test: Articular chondrocyte pellet, RT-PCR expression of MMP13; type: cell-based, cows; details: 25 μM peptide; normalized to GAPDH
Experimental: as §1
(§2) Cartilage tissue was prepared from hoof joints of less than 3-year old cows within one hour of being sacrificed at a regional slaughterhouse (located in Ojeong-dong, Daejeon, South Korea). For this purpose, a cartilage portion other than bone was cut using a surgical knife and collected to use. The cartilage tissue was sliced into a hexahedron of about 1 mm long at each side and placed in DMEM/F12 (Welgene) supplemented with Pronase (1 mg/ml, Roche), followed by reaction in a 5% CO2 incubator at 37° C. for 1.5 hours. The Pronase-treated tissue was washed twice with PBS(phosphate buffered saline) and then once with DMEM/F12. The washed cartilage tissue was placed in DMEM/F12 supplemented with 5% FBS (fetal bovine serum) (Invitrogen), Collagenase P (0.25 mg/ml, Roche) and DNase I (20 μg/ml, Sigma) and was allowed to react in a 5% CO2 incubator at 37° C. for 8 to 12 hours, such that the tissue was completely degraded. […]
(§3) RNA was isolated from the cultured pellet using TRIZOL (Invitrogen) and quantified by absorbance at 260 nm. cDNA was synthesized from 2.25 μg of RNA, using a random hexamer and 5× Reverse Transcriptase Master premix (Elpis Biotech, South Korea). […]

[4] = tested on: degenerative arthritis model; test: Cartilage regeneration in degenerative arthritis model (anterior cruciate ligament excision); type: in vivo, New Zealand white rabbits; details: intra-articular cavity injection once a week for 4 weeks
Experimental: As experimental animals, 18 to 22-week-old male New Zealand white rabbits (n=10), weighing 3 to 3.5 kg, were purchased from Orient Bio Inc. (South Korea). The animal experiments were performed in accordance with guidelines of the Institute of Laboratory Animal Resources (ILAR) under approval of Institutional Animal Care and Use Committee of Samsung Biomedical Research Institute (SBRI, Seoul, South Korea). Degeneration of articular cartilage was induced by surgically dissecting the patellar anterior cruciate ligament of rabbits and breeding the animals in a cage for 4 weeks. The animals were divided into a control group and an experimental group.
The rabbits were put under general anesthesia by intramuscularly injecting 2.5 mg/kg of xylazine (Rompun, Bayer) and 8 mg/kg of Tiletamine/Zolazepam (Zoletil, Virbac). Then, the patellar joints of right hind legs of animals were shaved and disinfected. Patellar skins and joint capsules were excised and patellae were displaced to expose anterior cruciate ligaments. Thereafter, the ligament was excised using a razor blade (No. 11) and the joint capsule and skin were sutured. After the surgical operation was completed, the rabbits were raised in a cage for 4 weeks while allowing for routine motion. The animals were housed under the following conditions: temperature of 20 to 25° C. humidity of 10% to 50%, and Light/Dark (L/D) cycle: (light from 08:00 a.m. to 20:00 p.m.). All animals were fed once a day. At Week 4 after the surgical operation, the rabbits were divided into two groups, followed by intra-articular cavity injection. The control group was given an injection of a vehicle (5% lactose/physiological saline). For the experimental group, 200 μl of 52.5 μM peptide solution was injected to the group to which 30 μM of the peptide of Example 1 was administered, and 200 μl of 157.5 μM peptide solution was injected to the group to which 90 μM of the peptide of Example 1 was administered. The above-mentioned peptide was prepared in a solvent of 5% lactose/physiological saline prior to use. An injection was given once a week for 4 weeks. 1 and 5 weeks after the final injection (Week 8 and 12 after the first operation), the experimental animals were euthanized by vascular injection of 1 to 2 mM/kg of KCl under deep anesthesia.
The proximal portion (femoral region) of the patellar articular bone was excised. For the comparison with normal tissue, left normal articular region was also additionally excised, followed by naked-eye examination and photographing. The excised articular regions were fixed in 10% formalin, decalcified by using a decalcifier solution (CalciClear Rapid, National Diagnostics), and then made into paraffin blocks. The frontal plane of articular bone was cut into a thickness of 4 μm, thereby preparing a slide. […]

[5] = tested on: type X collagen (COL10A1); test: Articular chondrocyte pellet, RT-PCR expression of type X collagen; type: cell-based, cows; details: 25 μM peptide; normalized to GAPDH
Experimental: as §1, §2, §3

| Substance | Relative expression of Type II collagen (%) (Mean ± SD) [1] | also measured |
| --- | --- | --- |
| Glu-Leu-Lys-Leu-Glu (ELKLE; Artificial peptide sequence prepared by coupling amino acid units one by one from the C-terminal, by Fmoc SPPS (9-flourenlymethyloxycarbonyl solid phase peptide synthesis) using an automated peptide synthesizer.) [Example 4] | 124 ± 12 |  |
| Asp-Leu-Lys-Leu-Glu (DLKLE; Artificial peptide sequence prepared by coupling amino acid units one by one from the C-terminal, by Fmoc SPPS (9-flourenlymethyloxycarbonyl solid phase peptide synthesis) using an automated peptide synthesizer.) [Example 10] | 166 ± 26 |  |
| Glu-Leu-Arg-Leu-Glu [Example 6] | 158 ± 38 |  |
| Glu-Leu-His-Leu-Glu (ELHLE; Artificial peptide sequence prepared by coupling amino acid units one by one from the C-terminal, by Fmoc SPPS (9-flourenlymethyloxycarbonyl solid phase peptide synthesis) using an automated peptide synthesizer.) [Example 2] | 163 ± 19 |  |
| Asp-Leu-His-Leu-Asp (DLHLD; Artificial peptide sequence prepared by coupling amino acid units one by one from the C-terminal, by Fmoc SPPS (9-flourenlymethyloxycarbonyl solid phase peptide synthesis) using an automated peptide synthesizer.) [Example 7] | 190 ± 38 |  |
| Glu-Leu-Arg-Leu-Asp (ELRLD; Artificial peptide sequence prepared by coupling amino acid units one by one from the C-terminal, by Fmoc SPPS (9-flourenlymethyloxycarbonyl solid phase peptide synthesis) using an automated peptide synthesizer.) [Example 5] | 149 ± 27 |  |
| Asp-Leu-Arg-Leu-Asp (DLRLD; Artificial peptide sequence prepared by coupling amino acid units one by one from the C-terminal, by Fmoc SPPS (9-flourenlymethyloxycarbonyl solid phase peptide synthesis) using an automated peptide synthesizer.) [Example 11] | 157 ± 34 |  |
| Glu-Leu-His-Leu-Asp (ELHLD; Artificial peptide sequence prepared by coupling amino acid units one by one from the C-terminal, by Fmoc SPPS (9-flourenlymethyloxycarbonyl solid phase peptide synthesis) using an automated peptide synthesizer.) [Example 1] | 155 ± 12 | damaged region of explant, hematoxylin & eosin staining (FIG. 4) ([2]; 6-week culture, 25 μM peptide and/or 2 ng/ml TGFβ1): the damaged region was narrowed; changes in damaged region of explant (micrograph, FIG. 1) ([2]; after 2 weeks): gradually decreased; changes in damaged region of explant (micrograph, FIG. 1) ([2]; after 4 weeks, with or without 2 ng/ml TGFβ1): cells began to adhere around the damaged region; changes in damaged region of explant (micrograph, FIG. 1) ([2]; after 6 weeks, with or without 2 ng/ml TGFβ1): remarkably reduced; decrease in the expression of MMP13, as compared to the control group [3]: 10%; increase in the expression of type II collagen, as compared to the control group ([1]; 25 μM peptide, normalized to GAPDH): 55%; proteoglycan in the cartilage matrix, Safranin O staining (FIG. 10) ([4]; 30 μM and 90 μM): increased synthesis of proteoglycan in a dose-dependent manner; articular cartilage tissue observed by naked eyes (FIG. 8) ([4]; 30 μM, 90 μM): smooth surface and gloss close to the normal state; H&E staining pattern of cartilage tissue (FIG. 9) [4]: staining pattern similar to that of the normal group; cell size in H&E staining (FIG. 9) [4]: increased cell size; decrease in the expression of type X collagen (COL10A1), as compared to the control group [5]: 69% |
| Asp-Leu-His-Leu-Glu (DLHLE; Artificial peptide sequence prepared by coupling amino acid units one by one from the C-terminal, by Fmoc SPPS (9-flourenlymethyloxycarbonyl solid phase peptide synthesis) using an automated peptide synthesizer.) [Example 8] | 115 ± 42 |  |
| Glu-Leu-Lys-Leu-Asp (ELKLD; Artificial peptide sequence prepared by coupling amino acid units one by one from the C-terminal, by Fmoc SPPS (9-flourenlymethyloxycarbonyl solid phase peptide synthesis) using an automated peptide synthesizer.) [Example 3] | 161 ± 29 |  |
| Asp-Leu-Lys-Leu-Asp (DLKLD; Artificial peptide sequence prepared by coupling amino acid units one by one from the C-terminal, by Fmoc SPPS (9-flourenlymethyloxycarbonyl solid phase peptide synthesis) using an automated peptide synthesizer.) [Example 9] | 147 ± 41 |  |
| Asp-Leu-Arg-Leu-Glu (DLRLE; Artificial peptide sequence prepared by coupling amino acid units one by one from the C-terminal, by Fmoc SPPS (9-flourenlymethyloxycarbonyl solid phase peptide synthesis) using an automated peptide synthesizer.) [Example 12] | 159 ± 28 |  |

— patent US8772241B2, “Peptide and use thereof” (Ensoltek Co., Ltd., priority 2010, dated 2014)
